Reference: patent publication US10233447B2, “Self-cleaving ribozymes and uses thereof” (The Children s Medical Center Corporation, priority 2003, dated 2019)
Several values for one entry are separate records, joined by “and”; a condition that tells them apart may be missing. Equal values may be shown once. Entries after “also recorded” stand apart in the source; their conditions may differ.

Columns and labels:
N79 rz = assay: microbe, parasite or virus in culture; assay type: cell-based, Schistosoma mansoni; conditions: for EC50 / maximal fold induction / Foldmax: inhibition of ribozyme activity in cells; for maximal fold induction: read-out: Foldmax; for luciferase protein expression / induced gene expression: double N79 rz; for luciferase activity, emission: untreated 1,555, background 121
double functional N79 rz = assay: In vivo induction of luciferase in retina injected with AAV carrying double N79 rz, bioluminescent imaging; design: species or system nude mice; conditions: for luciferase expression in retina: mice with AAV carrying double functional N79, drug pellet, day 2
Experimental: FIG. 4 show effective control of gene expression in vivo using rz-based gene regulation system. […] AAV injection was done 3 weeks prior to the first imaging day (day 0). Drug-releasing pellets were implanted subcutaneously in the dorsal neck immediately after the first imaging, and released the drug over 7 days. The toyocamycin pellet contains 10 μg of drug; adenosine pellet 50 μg.
Having documented the ability of the rz-based regulation system to function in mammalian cell culture, a final important issue to be addressed was whether the intracellular machinery and ‘environment’ necessary for self-cleavage was operable in primary cells in vivo. […] After 21 days, the injected animals were imaged for luciferase gene expression using the Xenogen IVIS imager, which provides a quantitative measure ofluciferase expression based on single-photon detection (Contag, et al., 1998, Nat Med 4, 245-7). […] Two days later, all animals were then imaged for luciferase expression. […] Quantification of the photon output indicated gene expression was ‘induced’ 39, 185, and 191-fold in the three mice infected with virus carrying the functional rzs and treated with toyocamycin. […] While the retina may be particularly accessible to ‘inducer’ due to its extensive vascularization, Applicants have shown in preliminary experiments that gene regulation can be accomplished at a number of other anatomical sites in vivo (e.g., muscle and ear).
Prior to imaging, the anesthetized mice were injected with 150 μl of luciferin (30 mg/ml) and the pupils were moistened and dilated with 1% tropicamide. A series of bioluminescent images were taken for up to 30 minutes using the Xenogen IVIS imager. Photon output was quantified at the plateau of the time course using the LivingImage software. Induction in fold was calculated based on the photon output in the retina before and after drug treatment, and was normalized to the photon output from the leg muscles. Adenosine was purchased from Innovative Research of America.

293 cells = assay: Transient transfection LacZ reporter assay of ribozyme self-cleavage; assay type: cell-based; conditions: for Fold (suppression in reporter gene expression relative to the vector with inactive rz): pMD LacZ vector, functional vs inactive rz, fold=1 means no effect
From the text: The approach is critically dependent upon both the ability of a specific self-cleaving ribozyme (rz) to effect the highly efficient cleavage (>99%) of an mRNA molecule into which it is embedded, and the availability of a small molecule capable of efficiently inhibiting self-cleavage of the cis-acting rz within an intracellular milieu. A first step in our studies was to identify candidate rz sequences capable of efficient cleavage in mammalian cells in the context of an ‘expression’ vector. For this purpose, Applicantsmade use of a transient transfection assay involving a standard mammalian expression vector (Ory, et al., 1996, Proc Natl Acad Sci USA 93, 11400-6) which encodes a LacZ reporter (FIG. 1b). […] After transfection of 293 cells with these vectors, protein extracts were prepared from cells and the β-gal level quantified.
1.5 μl Fugene-6 (Roche, Basel, Switzerland) was diluted in 100 μl OPTIMEM (Gibco, Carlsbad, Calif.) and incubated for 5 minutes at room temperature. This solution was added dropwise to 0.45 μg plasmid DNA and incubated for 15 minutes. The plasmid DNA contains either a wildtype or a mutant ribozyme and a Lacz reporter gene. The DNA mixture was then added dropwise to 3×10^5 HEK 293 cells (plated the previous day in a 35 mm dish). Cells were harvested for β-galactosidase assay 24 hours following transfection.
Plasmids carrying different ribozymes were transfected into HEK293T cells and lysed 24 h later. The cell extracts were incubated with ONPG, and the amount of B-galactosidase in cell extracts was measured by quantifying the processed ONPG using a luminometer.
Cleaving activity was determined by comparing the level of −galactosidase measured in the test sample to a control comprising a point mutation (A-+G) at position 14 which attenuates ribozyme activity. Briefly, transfected HEK293 cells were lysed with a lysis solution and the extracts of cells were separated from cell debris. The extracts were then incubated with ONPG, a chromogenic substrate of β-galactosidase. […] The intensity of yellow light emission was measured with a luminometer (Miller J., Experiments in Molecular Genetics, Cold Spring Harbor Laboratory, Cold Spring Harbor, N.Y. (1972)).

[1] = tested on: self-cleavage of full length ribozymes; assay: Catalytic rate measurement of in vitro transcribed ribozymes; assay type: biochemical; conditions: 50 mM Tris-HCl pH7.5, 23° C.
Experimental: Ribozymes were generated by in vitro transcription in the presence of 50 uM blocking antisense oligos. Full length ribozymes were purified and the cleavage rate determined in 50 mM Tris-HCI, pH7.5 at 23° C. Kobs was calculated according to the equation F1=F0+F∞(l−e^kt).

[2] = tested on: a variety of other commonly used cell lines; assay: Transfection of N79 rz vector into other cell lines; assay type: cell-based; conditions: after transfection
From the text: (a) and (b) N79 functioned efficiently in a variety of cell types. Numbers are the measurements of β-gal expressed. (c) N79 functioned efficiently at some but not all positions within the vector. […] The ±signs indicate standard deviation from mean of at least four independent measurements.
In addition, the N79 rz was able to function efficiently when placed within other transcriptional units which made use of different promoters and a different reporter gene (eGFP) (FIG. 2b). As Applicants had observed in the primary screen of different rz motifs for activity in mammalian cells, N79 was able to function when placed in several, but not all locations of the pMD transcriptional unit, albeit at different efficiencies (FIG. 2c). Importantly, placement of two rz sequences in tandem, in some cases (e.g., E position) led to a dramatic suppression of reporter gene expression (FIG. 2c).

[3] = rz inserted at position A of pMD vector

`O=c1[nH]c(=O)n([C@@H]2O[C@H](CO)[C@@H](O)[C@H]2O)cc1Br` [5-BromoUridine] showed an EC50 (N79 rz; Schistosoma mansoni) of 267 µM and a maximal fold induction (N79 rz; Schistosoma mansoni) of 16.

`O=c1[nH]cc(F)c(=O)[nH]1` [5-FluoroUracil] was tested, and the EC50 (N79 rz; Schistosoma mansoni) was 200 µM, the maximal fold induction (N79 rz; Schistosoma mansoni) was 377 and the “luciferase protein expression / induced gene expression” value (N79 rz; stable cell line) was “induced gene expression”.

In the case of `O=c1[nH]c(=O)n([C@@H]2O[C@H](CO)[C@@H](O)[C@H]2O)cc1F` [5-FluoroUridine], the EC50 (N79 rz; Schistosoma mansoni) is reported as 5.9 µM, the maximal fold induction (N79 rz; Schistosoma mansoni) is reported as 120 and the “luciferase protein expression / induced gene expression” value (N79 rz; stable cell line) is reported as “induced gene expression”.

In the case of `Nc1ncnc2c1nnn2[C@@H]1O[C@H](CO)[C@@H](O)[C@H]1O` [8-Azaadenosine], the EC50 (N79 rz; Schistosoma mansoni) is reported as 4 µM and the maximal fold induction (N79 rz; Schistosoma mansoni) is reported as 45.

`CN(C)c1ccc2cc3ccc(N(C)C)cc3nc2c1` [Acridine orange] was tested, and the EC50 (N79 rz; Schistosoma mansoni) was 7 µM and the maximal fold induction (N79 rz; Schistosoma mansoni) was 4.

`CC[n+]1c(-c2ccccc2)c2cc(N)ccc2c2ccc(N)cc21` [Homidium bromide] showed an EC50 (N79 rz; Schistosoma mansoni) of 2 µM and a maximal fold induction (N79 rz; Schistosoma mansoni) of 8.

With `OC[C@H]1O[C@@H](n2cnc3cncnc32)[C@H](O)[C@@H]1O` [Nebularine] the EC50 (N79 rz; Schistosoma mansoni) was 10 µM and the maximal fold induction (N79 rz; Schistosoma mansoni) was 8.

`NC(=O)c1cn([C@@H]2O[C@H](CO)[C@@H](O)[C@H]2O)c2ncnc(N)c12` [Sangivamycin] gave an EC50 (N79 rz; Schistosoma mansoni) of 1 µM and a maximal fold induction (N79 rz; Schistosoma mansoni) of 38.

For `N#Cc1cn([C@@H]2O[C@H](CO)[C@@H](O)[C@H]2O)c2ncnc(N)c12` [Toyocamycin], the “luciferase activity, emission” value (N79 rz; 0.5 μM, 24 hours) was 66,774 photons per second per 1000 cells, the “luciferase activity, emission” value (N79 rz; 1 μM, 24 hours) was 242,546 photons per second per 1000 cells and the “luciferase activity, emission” value (N79 rz; 1.5 μM, 24 hours) was 377,655 photons per second per 1000 cells. For the same molecule, the EC50 (N79 rz; Schistosoma mansoni) was 0.4 µM, the maximal fold induction (N79 rz; Schistosoma mansoni) was 365 and the “amount of luciferase mRNA” value (N79 rz; northern blot, nucleus and cytoplasm, 24 hours of treatment) was “increased to a level comparable to that of cells carrying inactive rz”. For the same molecule, the “concentrations at which toxic effects were observed” value (N79 rz; stable cell line, 24 hours) was “higher than 1.5 μM”, the “luciferase protein expression / induced gene expression” value (N79 rz; stable cell line) was “dramatic increase” and the “induced gene expression level relative to virus carrying inactive rzs” value (double functional N79 rz; animal showing 191-fold induction) was no more than 40%. The “gene expression 'induced', photon output in retina” value (double functional N79 rz; individual mice, functional rzs, 10 μg pellet subcutaneous, day 2, normalized to leg muscles) was 39 fold and 185 fold and 191 fold and the “luciferase expression in retina” value (double functional N79 rz) was “readily detectable expression; also recorded: strong induction”.

Work on `Nc1ncnc2c1ccn2[C@@H]1O[C@@H]2COP(=O)(O)O[C@H]2[C@H]1O` [Tubercidin-cyclic monophosphate] yielded an EC50 (N79 rz) of 34 µM and a Foldmax (N79 rz) of 35 fold.

Work on `Nc1ncnc2c1ccn2[C@@H]1O[C@H](COP(=O)(O)O)[C@@H](O)[C@H]1O` [Tubercidin-monophosphate] yielded an EC50 (N79 rz) of 2 µM and a Foldmax (N79 rz) of 39 fold.

`Nc1ncnc2c1ccn2[C@@H]1O[C@H](COP(=O)(O)OP(=O)(O)OP(=O)(O)O)[C@@H](O)[C@H]1O` [Tubercidin-triphosphate] gave an EC50 (N79 rz; Schistosoma mansoni) of 2 µM and a maximal fold induction (N79 rz; Schistosoma mansoni) of 35.

`Nc1ncnc2c1ccn2[C@@H]1O[C@H](CO)[C@@H](O)[C@H]1O` [Tubercidin] showed an EC50 (N79 rz; Schistosoma mansoni) of 2.5 µM and a maximal fold induction (N79 rz; Schistosoma mansoni) of 58.

`Nc1ncnc2c1ncn2[C@@H]1O[C@H](CO)[C@@H](O)[C@H]1O` [adenosine] was tested, and the “ability to inhibit rz self-cleavage” value (N79 rz) was “no ability” and the “luciferase expression in retina” value (double functional N79 rz) was “little if any gene expression”.

With “N94: N79 with shortened stem I, SEQ ID NO: 8 (CCAGCUGAUGAGUCCCAAAUAGGACGAAACGCGCUUCGGUGCGUCCUGG; expressed or natural sequence)” the “cleavage activity, fold difference between functional and inactive rz” value (293 cells; rz at position E of pMD vector) was “vastly reduced”.

B1: TRSV hammerhead: naturally occurring ribozyme, SEQ ID NO: 53 (nucleic acid)
chain: AUACCCUGUCACCGGAUGUGCUUUCCGGUCUGAUGAGUCCGUGAGGACGAAACAGGACUGUC
modifications: expressed or natural sequence
B1 was tested, and the “Fold (suppression in reporter gene expression relative to the vector with inactive rz)” value (293 cells) was 1 fold.

B2: Cricket hammerhead: hammerhead Pst-3 rz from the Dolichopoda cave cricket, SEQ ID NO: 1 (nucleic acid)
chain: AUGUGUGUUCCCUCUGCCCCGCUGAUGAGGUCGGGGAGACCGAAAGGGUCAACUCUACGGGGCUAUUACAUGCAAU
modifications: expressed or natural sequence
B2 was tested, and the “Fold (suppression in reporter gene expression relative to the vector with inactive rz)” value (293 cells) was 13 fold and the “cleavage activity, fold difference between functional and inactive rz” value (293 cells; [3]) was 13 fold.

B3: Schisto hammerhead: original hammerhead Sml rz of Schistosoma mansoni lacking loop III, SEQ ID NO: 2 (nucleic acid)
chain: CUGAGAUGCAGGUACAUCCAGCUGACGAGUCCCAAAUAGGACGAAACGCGCGUCCUGGAUUCCACUGCUAUCCAC
modifications: expressed or natural sequence
For B3, the “Fold (suppression in reporter gene expression relative to the vector with inactive rz)” value (293 cells) was 1 fold and the “cleavage activity, fold difference between functional and inactive rz” value (293 cells; [3]) was “no activity”.

B4: N27: Sml with tetraloop 5′-UUCG-3′ grafted onto extended stem III, SEQ ID NO: 3 (nucleic acid)
chain: CUGAGAUGCAGGUACAUCCAGCUGACGAGUCCCAAAUAGGACGAAACGCCUUCGGGCGUCCUGGAUUCCACUGCUAUCCAC
modifications: expressed or natural sequence
B4 was tested, and the “Fold (suppression in reporter gene expression relative to the vector with inactive rz)” value (293 cells) was 19 fold and the “cleavage activity, fold difference between functional and inactive rz” value (293 cells; [3]) was 19 fold.

B5: N93: N79 with shortened stem I, SEQ ID NO: 7 (nucleic acid)
chain: AGGUACAUCCAGCUGAUGAGUCCCAAAUAGGACGAAACGCGCUUCGGUGCGUCCUGGAUUCCACU
modifications: expressed or natural sequence
For B5, the “cleavage activity, fold difference between functional and inactive rz” value (293 cells; rz at position E of pMD vector) was “vastly reduced”.

B6: N79: N73 ribozyme transferred to position E of the vector, SEQ ID NO: 5 (nucleic acid)
chain: CUGAGAUGCAGGUACAUCCAGCUGAUGAGUCCCAAAUAGGACGAAACGCGCUUCGGUGCGUCCUGGAUUCCACUGCUAUCCAC
In the case of B6, the “cleavage activity, fold difference between functional and inactive rz” value (293 cells; rz at position E of pMD vector) is reported as 225 fold, the Kobs ([1]; 0.5 mM Mg++) is reported as 0.84 ^−min and the Kobs ([1]; 10 mM Mg++) is reported as 0.84 ^−min. The B-gal expression [2] was “dramatically reduced”.

B7: N99: N79 with changes in stem I near the core, SEQ ID NO: 6 (nucleic acid)
chain: CUGAGAUGCAGGUACAUCCCACUGAUGAGUCCCAAAUAGGACGAAACGCGCUUCGGUGCGUCUGGGAUUCCACUGCUAUCCAC
modifications: expressed or natural sequence
In the case of B7, the “cleavage activity, fold difference between functional and inactive rz” value (293 cells; rz at position E of pMD vector) is reported as “further enhanced activity”.

B8: N117: N79 variant changed near the restriction insertion site, SEQ ID NO: 6 (nucleic acid)
chain: CUGAGAUGCAGGUACAUCCCACUGAUGAGUCCCAAAUAGGACGAAACGCGCUUCGGUGCGUCUGGGAUUCCACUGCUAUCCAC
modifications: expressed or natural sequence
B8 was tested, and the “cleavage activity, fold difference between functional and inactive rz” value (293 cells; rz at position E of pMD vector) was “further enhanced activity”.
